{"source": "patent US20040142823A1", "about": "“Adjuvant compositions and pesticides” (priority 2003, published 2004)", "origin": "cited, not measured here", "note": "Where two headings read alike, the source gives them in different places."}
{"smiles": "CNC(=O)CSP(=S)(OC)OC", "note": "[Cygon, dimethoate]", "values": [{"measurement": "Time to lose 50 percent of pest control power", "setting": "mixed in water of pH 9", "result": 48, "unit": "min"}, {"measurement": "Time to lose 50 percent of pest control power", "setting": "pH of 6", "result": 720, "unit": "min"}]}
